Assay results as given in patent US8846670B2, “1,2,3,4-tetrahydro-pyrimido(1,2-a)pyrimidin-6-one derivatives, preparation thereof, and pharmaceutical use thereof” (priority 2009, dated 2014).

How the values were obtained:
[1] = test system: AKT protein phosphorylated on serine 473 (P-AKT-S473) in PC3 human prostate carcinoma line; assay: Study of pAKT expression in PC3 human prostate carcinoma cells measured by the MSD Multi-spot Biomarker Detection technique (Test B); format: cell-based; details: MSD sandwich immunoassay, 1 to 2 h incubation, absolute IC50, mean of 2 experiments
Description: The inhibitory activity of the molecules on AKT phosphorylation is measured either by western blotting using the technique described below, or by the MSD Multi-spot Biomarker detection technique from Meso Scale Discovery also described below.
Study of pAKT Expression in PC3Human Prostate Carcinoma Cells Measured by the MSD Multi-Spot Biomarker Detection Technique from Meso Scale Discovery (Test B):
The primary antibody specific for P-AKT-S473 (Kit #K151CAD) is coated onto an electrode in each well of the 96-well plates of the MSD kit: after the addition of a protein lysate to each well, the signal is visualised by adding a secondary detection antibody labelled with an electrochemiluminescent compound. The procedure followed is that described in the kit.
On day 2, the cells are incubated in the presence or absence of the test products for 1 to 2 h at 37° C. in the presence of 5% of CO2. The molecules, diluted in dimethyl sulphoxide (DMSO Sigma #D2650), are added from a 20-times concentrated stock solution, the final percentage of DMSO being 0.1%.
After this incubation, the cells are lysed for the preparation of the proteins. […] At this stage, the plates containing the lysates can be frozen at −20° C. or at −80° C.
The wells of the 96-well plates of the MSD kit are saturated for 1 h at ambient temperature with the blocking solution of the MSD kit. Four washes are carried out with 150 μl of Tris Wash Buffer of the MSD kit. The lysates previously prepared are transferred into the 96-well multi-spot plates of the MSD kit and incubated for 1 h at ambient temperature, with shaking. Four washes are carried out with 150 μl of Tris Wash Buffer of the MSD kit. 25 μl of the MSD sulfo-tag detection antibody solution are added to the wells and incubated for 1 h at ambient temperature, with shaking. Four washes are carried out with 150 μl of Tris Wash Buffer of the MSD kit. 150 μl of Read Buffer of the MSD kit are added to the wells and the plates are read immediately on the S12400 instrument from Meso Scale Discovery.
The instrument measures a signal for each well. Wells without cells and containing the lysis buffer serve to determine the background noise that will be subtracted from all the measurements (min). The wells containing cells in the absence of product and in the presence of 0.1% DMSO are considered to be the 100% signal (max). The percentage inhibition is calculated for each concentration of test product according to the following formula: (1−((test−min)/(max−min)))×100.
2 independent experiments make it possible to calculate the mean of the IC50 values.

[2] = test system: translocation of the LC3 protein in Hela GFP-LC3 cells; assay: Study of the translocation of the LC3 protein in Hela human cells, measured by image analysis cytometry (Test C, autophagy); format: cell-based; details: 2 h, Hela GFP-LC3 cells with LC3 granulations, EBSS + 10 μM hydroxychloroquine, absolute IC50
Description: The inhibitory activity of the molecules on autophagy is measured by the translocation of the LC3 protein from the cytoplasm to the autophagosomes. For this, Hela cells were transfected with a vector encoding the chimeric protein GFP-LC3. A Hela clone stably expressing the GFP-LC3 protein was selected.
Study of the Translocation of the LC3 Protein in Hela Human Cells, Measured by Image Analysis Cytometry (Test C):
On day 2, the cells are washed twice with EBSS (Sigma #E3024). The cells are then incubated in EBSS, 10 μM of hydroxychloroquine and test products for 2 h at 37° C. in the presence of 5% CO2. The molecules are diluted in dimethyl sulphoxide (DMSO Sigma #D2650), the final DMSO percentage being 0.1%.
After this incubation, the cells are fixed with 4% paraformaldehyde (Sigma #HT501128 4 L) for 10 min. […] The 96-well plates are then read with the iCyte image analysis cytometer (Compucyte).
Two independent experiments make it possible to calculate the mean of the IC50 values.

[3] = Homo sapiens, PC-3, P-AKT-S473 in PC3 cells

IC50 [1, 3] [nM]	IC50 ([2]; Homo sapiens, HeLa) [nM]	IC50 ([1]; P-AKT-S473 in PC3 cells) [nM]	IC50 [2] [nM]	Compound
46	319	–	–	C[C@H](c1ccc(Br)cc1)N1c2nc(N3CCOCC3)cc(=O)n2CC[C@H]1C(F)(F)F (single isomer, unassigned) [Example 11, (8S)-9-[(1S or 1R)-1-(4-bromophenyl)ethyl]-2-(morpholin-4-yl)-8-(trifluoromethyl)-6,7,8,9-tetrahydro-4H-pyrimido[1,2-a]pyrimidin-4-one]
24	221	–	–	CC(c1ccc(F)cc1)N1c2nc(N3CCOCC3)cc(=O)n2CC[C@H]1C(F)(F)F (single isomer, unassigned) [Example 33, (8S)-9-[(1R or 1S)-1-(4-fluorophenyl)ethyl]-2-(morpholin-4-yl)-8-(trifluoromethyl)-6,7,8,9-tetrahydro-4H-pyrimido[1,2-a]pyrimidin-4-one]
–	–	5	237	CC(c1ccccc1F)N1c2nc(N3CCOCC3)cc(=O)n2CC[C@H]1C(F)(F)F (single isomer, unassigned) [Example 39, (8S)-9-[(1R or 1S)-1-(2-fluorophenyl)ethyl]-2-(morpholin-4-yl)-8-(trifluoromethyl)-6,7,8,9-tetrahydro-4 H-pyrimido[1,2-a]pyrimidin-4-one]
39	> 1000	–	–	O=c1cc(N2CCOCC2)nc2n1CC[C@@H](C(F)(F)F)N2c1cccnc1 [Example 19, (S)-2-morpholin-4-yl-9-pyridin-3-yl-8-trifluoromethyl-6,7,8,9-tetrahydropyrimido[1,2-a]pyrimidin-4-one]
43	212	–	–	O=c1cc(N2CCOCC2)nc2n1CC[C@@H](C(F)(F)F)N2Cc1ccc(F)cc1F [Example 30, (8S)-9-(2,4-difluorobenzyl)-2-(morpholin-4-yl)-8-(trifluoro-methyl)-6,7,8,9-tetrahydro-4H-pyrimido[1,2-a]pyrimidin-4-one]
33	780	–	–	O=c1cc(N2CCOCC2)nc2n1CC[C@@H](C(F)(F)F)N2Cc1csc2ccc(Cl)cc12 [Example 32, (8S)-9-[(5-chloro-1-benzothiophen-3-yl)methyl]-2-(morpholin-4-yl)-8-(trifluoromethyl)-6,7,8,9-tetrahydro-4H-pyrimido[1,2-a]pyrimidin-4-one]
3	82	–	–	O=c1cc(N2CCOCC2)nc2n1CC[C@@H](C(F)(F)F)N2CCc1cccc(F)c1 [Example 40, (8S)-9-[2-(3-fluorophenyl)ethyl]-2-(morpholin-4-yl)-8-(trifluoromethyl)-6,7,8,9-tetrahydro-4 H-pyrimido[1,2-a]pyrimidin-4-one]

The next lines start with the compound.

Compound	IC50 [1, 3] [nM]	IC50 ([2]; Homo sapiens, HeLa) [nM]	IC50 ([1]; P-AKT-S473 in PC3 cells) [nM]	IC50 [2] [nM]
CC(c1ccc(F)cc1)N1c2nc(N3CCOCC3)cc(=O)n2CC[C@H]1C(F)(F)F (single isomer, unassigned) [Example 34, (8S)-9-[(1R or 1S)-1-(4-fluorophenyl)ethyl]-2-(morpholin-4-yl)-8-(trifluoromethyl)-6,7,8,9-tetrahydro-4H-pyrimido[1,2-a]pyrimidin-4-one]	–	–	22	35
CC(c1ccccc1F)N1c2nc(N3CCOCC3)cc(=O)n2CC[C@H]1C(F)(F)F (single isomer, unassigned) [Example 38, (8S)-9-[(1R or 1S)-1-(2-fluorophenyl)ethyl]-2-(morpholin-4-yl)-8-(trifluoromethyl)-6,7,8,9-tetrahydro-4 H-pyrimido[1,2-a]pyrimidin-4-one]	–	167	2	–
COc1ccc([C@H](O)CN2c3nc(N4CCOCC4)cc(=O)n3CC[C@H]2C(F)(F)F)cc1 [Example 7, (8S)-9-[(2S)-2-hydroxy-2-(4-methoxyphenyl)ethyl]-2-(morpholin-4-yl)-8-(trifluoromethyl)-6,7,8,9-tetrahydro-4H-pyrimido[1,2-a]pyrimidin-4-one]	1	5	–	–
O=c1cc(N2CCOCC2)nc2n1CC[C@@H](C(F)(F)F)N2c1cccc(F)c1 [Example 14, (8S)-9-(3-fluorophenyl)-2-(morpholin-4-yl)-8-(trifluoromethyl)-6,7,8,9-tetrahydro-4H-pyrimido[1,2-a]pyrimidin-4-one]	15	337	–	–
Cc1ccc(N2c3nc(N4CCOCC4)cc(=O)n3CC[C@H]2C(F)(F)F)cc1 [Example 21, (8S)-9-(4-methylphenyl)-2-(morpholin-4-yl)-8-(trifluoro-methyl)-6,7,8,9-tetrahydro-4H-pyrimido[1,2-a]pyrimidin-4-one]	24	157	–	–
O=c1cc(N2CCOCC2)nc2n1CC[C@@H](C(F)(F)F)N2Cc1ccccc1Cl [Example 22, (8S)-9-(2-chlorobenzyl)-2-(morpholin-4-yl)-8-(trifluoro-methyl)-6,7,8,9-tetrahydro-4H-pyrimido[1,2-a]pyrimidin-4-one]	23	785	–	–
O=c1cc(N2CCOCC2)nc2n1CC[C@@H](C(F)(F)F)N2Cc1cccc(F)c1 [Example 23, (8S)-9-(3-fluorobenzyl)-2-(morpholin-4-yl)-8-(trifluoromethyl)-6,7,8,9-tetrahydro-4H-pyrimido[1,2-a]pyrimidin-4-one]	24	663	–	–
COc1cccc(CCN2c3nc(N4CCOCC4)cc(=O)n3CC[C@H]2C(F)(F)F)c1 [Example 25]	7	38	–	–
COc1cccc(CN2c3nc(N4CCOCC4)cc(=O)n3CC[C@H]2C(F)(F)F)c1 [Example 26, (8S)-9-(3-methoxybenzyl)-2-(morpholin-4-yl)-8-(trifluoromethyl)-6,7,8,9-tetrahydro-4H-pyrimido[1,2-a]pyrimidin-4-one]	18	270	–	–
O=C(c1ccccc1F)N1c2nc(N3CCOCC3)cc(=O)n2CC[C@H]1C(F)(F)F [Example 28, (8S)-9-[(2-fluorophenyl)carbonyl]-2-(morpholin-4-yl)-8-(trifluoromethyl)-6,7,8,9-tetrahydro-4H-pyrimido[1,2-a]pyrimidin-4-one]	33	> 10000	–	–
O=c1cc(N2CCOCC2)nc2n1CC[C@@H](C(F)(F)F)N2Cc1cc(F)cc(F)c1 [Example 29, (8S)-9-(3,5-difluorobenzyl)-2-(morpholin-4-yl)-8-(trifluoro-methyl)-6,7,8,9-tetrahydro-4H-pyrimido[1,2-a]pyrimidin-4-one]	22	> 1000	–	–
O=c1cc(N2CCOCC2)nc2n1CC[C@@H](C(F)(F)F)N2Cc1ccc(F)c(F)c1F [Example 31, (8S)-2-(morpholin-4-yl)-9-(2,3,4-trifluorobenzyl)-8-(trifluoro-methyl)-6,7,8,9-tetrahydro-4H-pyrimido[1,2-a]pyrimidin-4-one]	150	557	–	–
Cc1cccc(N2c3nc(N4CCOCC4)cc(=O)n3CC[C@H]2C(F)(F)F)c1 [Example 35, (8S)-9-(3-methylphenyl)-2-(morpholin-4-yl)-8-(trifluoro-methyl)-6,7,8,9-tetrahydro-4H-pyrimido[1,2-a]pyrimidin-4-one]	20	650	–	–
O=c1cc(N2CCOCC2)nc2n1CC[C@@H](C(F)(F)F)N2c1ccc(Cl)cc1 [Example 36, (8S)-9-(4-chlorophenyl)-2-(morpholin-4-yl)-8-(trifluoro-methyl)-6,7,8,9-tetrahydro-4H-pyrimido[1,2-a]pyrimidin-4-one]	18	157	–	–
O=c1cc(N2CCOCC2)nc2n1CC[C@@H](C(F)(F)F)N2c1ccc(C(F)(F)F)cc1 [Example 37, (8S)-2-(morpholin-4-yl)-8-(trifluoromethyl)-9-[4-(trifluoro-methyl)phenyl]-6,7,8,9-tetrahydro-4H-pyrimido[1,2-a]pyrimidin-4-one]	18	270	–	–
